Six compounds from patent US9981987B2, “Tricyclic heterocyclic compounds as phosphoinositide 3-kinase inhibitors” (Karus Therapeutics Limited, priority 2014, dated 2018) can be followed below.

In general, clearance refers to the volume of plasma or blood freed of the substance per unit of time. The AUC is the area under the concentration-time curve, a measure of exposure. The AUC(0-inf) is the area under the concentration-time curve extrapolated to infinity. A word on the AUC(0-t): it is the area under the concentration-time curve up to a stated or last time point. Usually Cmax stands for the peak of the concentration-time curve. As a reminder, the half-life is how long it takes for the measured level to halve. By Tmax is commonly meant the time at which the peak concentration occurs. For orientation: bioavailability means the share of a dose that reaches the circulation, judged against a reference dose that is usually intravenous. Broadly, the IC50 is the concentration that gives 50% inhibition. Read a high IC50 as weaker potency in that assay.

Data set [1] is described as follows: Rodent pharmacokinetics, male CD1 mouse, plasma PK. It counts as in vivo. The following applies: for clearance / AUC / AUC(0-inf) / AUC(0-t) / Cmax / Vd / half-life: male, CD1, mouse. The method, then: Formulation: 10% DMSO, 90% Saline Dosing: 10 mg/kg P.O. and 5 mg/kg I.V. Plasma PK Summary:
Formulation: 10% DMSO, 90% Saline
Dosing: 10 mg/kg P.O. and 5 mg/kg I.V.

Another data set has as its system PI3K isoforms. Nature of the data set: HTRF biochemical assay, fold selectivity between PI3K isoforms. The following applies: isoform selectivity. From the text:
(§1) Fold form selectivity inhibition data against PI3K isoforms, as determined using a HTRF biochemical assay, is listed below.

The target in the next data set is PI3K p110α (Homo sapiens, UniProt P42336). Briefly: HTRF biochemical assay, PI3K p110α.
Chain of PI3K p110α (P42336 whole entry): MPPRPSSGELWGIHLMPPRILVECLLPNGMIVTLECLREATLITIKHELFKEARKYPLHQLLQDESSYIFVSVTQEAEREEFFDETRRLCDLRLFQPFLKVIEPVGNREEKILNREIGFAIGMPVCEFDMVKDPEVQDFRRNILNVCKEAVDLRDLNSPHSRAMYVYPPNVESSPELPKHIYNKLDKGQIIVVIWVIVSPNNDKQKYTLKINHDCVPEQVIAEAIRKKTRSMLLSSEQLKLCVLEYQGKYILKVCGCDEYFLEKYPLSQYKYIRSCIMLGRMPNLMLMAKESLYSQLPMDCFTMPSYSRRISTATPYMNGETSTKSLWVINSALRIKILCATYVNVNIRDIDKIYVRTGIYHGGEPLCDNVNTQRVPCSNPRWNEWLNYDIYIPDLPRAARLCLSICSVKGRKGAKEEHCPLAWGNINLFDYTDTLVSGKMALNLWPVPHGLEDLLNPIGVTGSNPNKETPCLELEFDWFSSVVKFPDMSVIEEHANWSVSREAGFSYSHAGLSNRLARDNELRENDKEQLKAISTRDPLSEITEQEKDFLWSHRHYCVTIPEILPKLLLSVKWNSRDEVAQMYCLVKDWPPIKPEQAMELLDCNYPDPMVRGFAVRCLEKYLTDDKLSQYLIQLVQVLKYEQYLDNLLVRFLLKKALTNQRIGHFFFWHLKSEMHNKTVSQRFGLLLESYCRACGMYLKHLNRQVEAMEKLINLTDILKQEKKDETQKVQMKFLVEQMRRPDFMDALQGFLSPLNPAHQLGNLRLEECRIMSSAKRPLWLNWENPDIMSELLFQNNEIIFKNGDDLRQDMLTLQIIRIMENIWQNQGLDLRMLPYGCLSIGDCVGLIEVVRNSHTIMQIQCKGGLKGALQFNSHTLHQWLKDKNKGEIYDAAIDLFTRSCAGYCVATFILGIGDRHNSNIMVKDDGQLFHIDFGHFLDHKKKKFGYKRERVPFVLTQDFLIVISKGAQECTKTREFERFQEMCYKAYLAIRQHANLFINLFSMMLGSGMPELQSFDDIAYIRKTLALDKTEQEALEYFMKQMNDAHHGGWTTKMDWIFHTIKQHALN
Chain of PI3K p110α (P27986 whole entry partner): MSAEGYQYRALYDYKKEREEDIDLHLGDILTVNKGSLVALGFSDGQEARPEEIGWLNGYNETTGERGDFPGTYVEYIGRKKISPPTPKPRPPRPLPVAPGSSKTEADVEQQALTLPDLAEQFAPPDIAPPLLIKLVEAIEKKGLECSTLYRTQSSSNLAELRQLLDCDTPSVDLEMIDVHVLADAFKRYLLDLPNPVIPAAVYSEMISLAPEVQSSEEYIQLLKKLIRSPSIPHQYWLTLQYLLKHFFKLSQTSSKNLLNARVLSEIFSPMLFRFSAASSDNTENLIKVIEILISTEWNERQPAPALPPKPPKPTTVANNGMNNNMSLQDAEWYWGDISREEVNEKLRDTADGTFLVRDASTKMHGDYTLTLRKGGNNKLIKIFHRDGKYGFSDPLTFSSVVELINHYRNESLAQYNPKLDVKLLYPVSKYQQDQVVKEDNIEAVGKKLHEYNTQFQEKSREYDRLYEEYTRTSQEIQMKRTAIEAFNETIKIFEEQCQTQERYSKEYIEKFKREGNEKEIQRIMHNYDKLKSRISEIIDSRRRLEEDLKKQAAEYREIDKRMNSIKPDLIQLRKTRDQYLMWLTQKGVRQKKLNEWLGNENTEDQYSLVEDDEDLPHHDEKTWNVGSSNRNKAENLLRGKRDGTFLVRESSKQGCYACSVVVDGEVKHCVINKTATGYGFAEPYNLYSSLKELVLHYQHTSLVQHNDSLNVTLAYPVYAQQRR
Text: as §1
(In general: Time-resolved FRET reads energy transfer from a long-lived donor to a nearby acceptor.)

The next data set concerns the target PI3K p110β (Homo sapiens, UniProt P42338). Briefly: HTRF biochemical assay, PI3K p110β.
Text: as §1

The target of the next data set is PI3K p110δ (Homo sapiens, UniProt O00329). Nature of the data set: HTRF biochemical assay, PI3K p110δ.
Chain of PI3K p110δ (O00329 whole entry): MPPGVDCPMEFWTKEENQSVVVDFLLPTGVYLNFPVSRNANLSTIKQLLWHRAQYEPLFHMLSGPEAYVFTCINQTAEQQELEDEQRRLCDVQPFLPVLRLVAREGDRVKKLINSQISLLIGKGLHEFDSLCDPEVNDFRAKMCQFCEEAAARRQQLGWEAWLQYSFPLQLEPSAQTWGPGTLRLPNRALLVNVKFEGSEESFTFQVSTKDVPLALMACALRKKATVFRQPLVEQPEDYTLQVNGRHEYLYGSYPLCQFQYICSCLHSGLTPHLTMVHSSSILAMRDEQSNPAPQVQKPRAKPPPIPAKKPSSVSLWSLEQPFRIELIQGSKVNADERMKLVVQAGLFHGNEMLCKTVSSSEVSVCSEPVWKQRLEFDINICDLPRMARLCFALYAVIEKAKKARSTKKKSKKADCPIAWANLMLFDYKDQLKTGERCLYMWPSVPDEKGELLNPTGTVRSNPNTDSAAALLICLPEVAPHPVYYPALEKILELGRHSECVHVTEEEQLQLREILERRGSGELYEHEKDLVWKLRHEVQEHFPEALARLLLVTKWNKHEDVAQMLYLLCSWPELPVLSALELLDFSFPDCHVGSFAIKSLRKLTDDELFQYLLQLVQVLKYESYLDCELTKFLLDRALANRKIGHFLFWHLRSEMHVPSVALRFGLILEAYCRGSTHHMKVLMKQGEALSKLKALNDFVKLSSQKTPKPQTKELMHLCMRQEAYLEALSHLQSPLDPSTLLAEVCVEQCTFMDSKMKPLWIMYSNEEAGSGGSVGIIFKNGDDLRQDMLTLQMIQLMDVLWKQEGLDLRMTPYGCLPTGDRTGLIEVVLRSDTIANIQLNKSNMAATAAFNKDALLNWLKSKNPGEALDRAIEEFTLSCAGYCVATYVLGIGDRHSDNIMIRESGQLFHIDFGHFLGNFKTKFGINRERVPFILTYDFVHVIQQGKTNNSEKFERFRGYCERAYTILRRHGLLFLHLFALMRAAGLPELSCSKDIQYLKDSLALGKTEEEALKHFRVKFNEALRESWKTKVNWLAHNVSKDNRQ
Chain of PI3K p110δ (P27986 whole entry partner): as the sequence (P27986 whole entry partner) above
Text: as §1

The target in a further data set is PI3K p110γ (Homo sapiens, UniProt P48736). Briefly: HTRF biochemical assay, PI3K p110γ.
Chain of PI3K p110γ (P48736 whole entry): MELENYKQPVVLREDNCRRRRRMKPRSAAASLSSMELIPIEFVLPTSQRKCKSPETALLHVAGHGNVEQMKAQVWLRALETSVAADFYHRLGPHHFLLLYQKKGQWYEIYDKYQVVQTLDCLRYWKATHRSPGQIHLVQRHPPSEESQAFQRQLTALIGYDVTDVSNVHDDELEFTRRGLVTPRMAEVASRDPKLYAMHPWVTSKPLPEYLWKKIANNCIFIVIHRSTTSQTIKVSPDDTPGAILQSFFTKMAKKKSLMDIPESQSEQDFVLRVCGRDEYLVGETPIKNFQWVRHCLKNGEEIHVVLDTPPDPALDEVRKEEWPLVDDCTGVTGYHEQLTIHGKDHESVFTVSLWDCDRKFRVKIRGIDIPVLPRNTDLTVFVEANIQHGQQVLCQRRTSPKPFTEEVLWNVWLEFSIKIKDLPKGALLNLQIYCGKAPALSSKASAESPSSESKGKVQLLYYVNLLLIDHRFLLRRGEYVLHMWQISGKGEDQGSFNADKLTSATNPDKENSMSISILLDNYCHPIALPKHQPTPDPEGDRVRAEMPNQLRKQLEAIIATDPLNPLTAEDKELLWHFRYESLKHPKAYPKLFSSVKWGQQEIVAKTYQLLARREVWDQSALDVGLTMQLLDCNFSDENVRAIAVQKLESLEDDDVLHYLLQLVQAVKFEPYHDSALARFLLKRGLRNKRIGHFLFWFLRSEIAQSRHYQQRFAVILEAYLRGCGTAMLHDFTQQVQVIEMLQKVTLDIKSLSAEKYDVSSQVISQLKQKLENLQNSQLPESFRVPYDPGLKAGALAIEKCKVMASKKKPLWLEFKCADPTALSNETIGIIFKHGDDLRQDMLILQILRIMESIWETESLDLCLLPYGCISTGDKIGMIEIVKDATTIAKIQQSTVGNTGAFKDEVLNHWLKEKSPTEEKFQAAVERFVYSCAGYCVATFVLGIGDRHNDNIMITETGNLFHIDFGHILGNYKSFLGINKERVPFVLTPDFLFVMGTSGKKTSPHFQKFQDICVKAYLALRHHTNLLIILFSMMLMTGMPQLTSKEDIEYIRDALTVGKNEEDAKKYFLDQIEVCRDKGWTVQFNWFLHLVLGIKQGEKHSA
Text: as §1

Data set [2] is described as follows: Rodent pharmacokinetics, male Balb/c mouse, plasma PK. It counts as in vivo. The following applies: for clearance: male, Balb/c, mouse, iv; for clearance / AUC(0-inf) / AUC(0-t) / Cmax / half-life / Vd / Tmax / bioavailability: plasma; for Vd: read-out: Vss. The method, then:
Animals in Group 1 were administered intravenously with Example B solution formulation in 20% Propylene Glycol, 50% of PEG 400 and 30% of (20% HPβCD in water) via tail vein at a dose of 3 mg/kg.
Animals in Group 2 were administered with oral solution formulation of Example B in 20% Propylene Glycol, 50% of PEG 400 and 30% of (20% HPβCD in water) at a dose of 10 mg/kg;
Dosing: 10 mg/kg P.O. and 3 mg/kg I.V.
Animals in Group 1 were administered intravenously with Example G solution formulation in 5% NMP, 5% solutol HS-15 in 90% HPβCD solution (20% HPβCD in RO water) at 3 mg/kg dose.
Animals in Group 2 were administered orally with 10 mg/kg solution formulation of Example G in 5% NMP, 5% solutol HS-15 in 90% HPβCD solution (20% HPβCD in RO water)

Where [3] appears, read: plasma, iv, 5 mg/kg, 5 mg/kg I.V., summary.
Where [4] appears, read: plasma, iv, 5 mg/kg, Mesylate Salt.
Setting [5] is: plasma, po, 10 mg/kg, Mesylate Salt.
The mark [6] stands for this setting: plasma, IV, 5 mg/kg, Mesylate Salt, read-out: Tmax.
Where [7] appears, read: plasma, PO, 10 mg/kg, Mesylate Salt, read-out: Tmax.
Where [8] appears, read: plasma, oral, 10 mg/kg P.O. and 5 mg/kg I.V., rounded summary in text, read-out: Oral bioavailability (F).
Setting [9] is: plasma, po, 10 mg/kg, summary table, unit inferred, read-out: Oral Bioavailability (F).
The mark [10] stands for this setting: oral, 10 mg/kg P.O. and 3 mg/kg I.V., read-out: Oral bioavailability (F).
[11] abbreviates: po, 10 mg/kg, summary table, unit inferred, read-out: Oral Bioavailability (F).

Chain of PI3K p110β (P42338 whole entry): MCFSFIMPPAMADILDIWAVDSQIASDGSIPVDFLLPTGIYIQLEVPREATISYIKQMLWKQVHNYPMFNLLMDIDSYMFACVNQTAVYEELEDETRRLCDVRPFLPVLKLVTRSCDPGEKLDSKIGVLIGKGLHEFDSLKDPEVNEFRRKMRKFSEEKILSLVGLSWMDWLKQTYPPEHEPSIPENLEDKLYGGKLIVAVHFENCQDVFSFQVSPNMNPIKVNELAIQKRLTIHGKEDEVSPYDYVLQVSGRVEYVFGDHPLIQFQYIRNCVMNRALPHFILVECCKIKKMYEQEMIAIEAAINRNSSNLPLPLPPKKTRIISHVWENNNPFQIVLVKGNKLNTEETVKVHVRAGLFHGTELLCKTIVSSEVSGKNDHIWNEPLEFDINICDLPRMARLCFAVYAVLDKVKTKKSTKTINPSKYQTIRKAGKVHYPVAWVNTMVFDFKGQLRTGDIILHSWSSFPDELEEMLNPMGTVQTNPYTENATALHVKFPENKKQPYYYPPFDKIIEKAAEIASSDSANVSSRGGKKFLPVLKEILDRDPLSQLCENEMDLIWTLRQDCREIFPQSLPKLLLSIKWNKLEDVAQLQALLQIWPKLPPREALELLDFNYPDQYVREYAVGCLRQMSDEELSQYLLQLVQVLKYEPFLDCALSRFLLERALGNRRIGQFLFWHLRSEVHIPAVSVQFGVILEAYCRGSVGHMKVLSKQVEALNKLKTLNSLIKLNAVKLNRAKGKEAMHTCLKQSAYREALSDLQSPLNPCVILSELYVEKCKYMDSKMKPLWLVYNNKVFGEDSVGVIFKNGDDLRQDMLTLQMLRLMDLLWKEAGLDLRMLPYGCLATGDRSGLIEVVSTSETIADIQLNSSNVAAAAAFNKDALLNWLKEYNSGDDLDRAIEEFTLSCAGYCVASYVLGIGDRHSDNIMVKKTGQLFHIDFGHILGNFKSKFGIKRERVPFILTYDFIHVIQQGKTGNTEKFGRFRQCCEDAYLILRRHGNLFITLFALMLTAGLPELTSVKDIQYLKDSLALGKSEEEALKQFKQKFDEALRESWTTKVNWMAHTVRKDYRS
Chain of PI3K p110β (P27986 whole entry partner): as the sequence (P27986 whole entry partner) above

In the case of `c1cc(-c2nc(N3CCOCC3)c3oc4ncc(CN5C[C@@H]6C[C@H]5CO6)cc4c3n2)c2cc[nH]c2c1` [Example A, 4-(1H-Indol-4-yl)-6-(morpholin-4-yl)-12-[(1S,4S)-2-oxa-5-azabicyclo[2.2.1]heptan-5-ylmethyl]-8-oxa-3,5,10-triazatricyclo[7.4.0.0^2,7]trideca-1(13),2(7),3,5,9,11-hexaene], in data set [1] (PO, 10 mg/kg, Mesylate Salt), the F is 73.77%. For the same compound, in data set [1] (setting [3]), the clearance amounted to 21 mL/min/kg. In data set [1] (setting [4]), the AUC came to 3900 ng·h/mL, the AUC(0-inf) came out at 3950 ng·h/mL, the AUC(0-t) turned out to be 3900 ng·h/mL and the Cmax was 2640 ng/mL. In data set [1] (setting [4]), the Vd was found to be 2.44 L/kg, the clearance is 21.1 mL/min/kg and the half-life was 1.3 h. In data set [1] (setting [5]), the AUC amounted to 5620 ng·h/mL, the total exposure AUC(0-inf) was found to be 5820 ng·h/mL, the AUC(0-t) amounted to 5620 ng·h/mL and the Cmax was 1970 ng/mL. Besides, in data set [1] (setting [5]), the half-life was 1.3 h. Further, the Tmax in data set [1] (setting [6]) stood at 0.08 h. Moreover, in data set [1] (setting [7]), the Tmax was 1 h. In addition, in data set [1] (setting [8]), the bioavailability was 74%. For the same compound, in data set [1] (setting [9]), the bioavailability was 74%.
For `CN1CCC2(CCN(Cc3cnc4oc5c(N6CCOCC6)nc(-c6cccc7[nH]ccc67)nc5c4c3)CC2)C1` [Example D, 4-(1H-Indol-4-yl)-12-({2-methyl-2,8-diazaspiro[4.5]decan-8-yl}methyl)-6-(morpholin-4-yl)-8-oxa-3,5,10-triazatricyclo[7.4.0.0^2,7]trideca-1(13),2(7),3,5,9,11-hexaene], in the data set on PI3K isoforms, the “Fold IC50 p110β/p110α” value is listed as “** (** = ≥50x)”, the “Fold IC50 p110β/p110γ” value is recorded as “** (** = ≥50x)”, the “Fold IC50 p110δ/p110α” value was “** (** = ≥50x)” and the “Fold IC50 p110δ/p110γ” value is “** (** = ≥50x)”.
For the compound `c1cc(-c2nc(N3CCOCC3)c3oc4ncc(CN5CCCCC5)cc4c3n2)c2cc[nH]c2c1` [Example I in WO2011/021038], the time of peak concentration (Tmax) in data set [1] (IV, 5 mg/kg, HCl Salt) was found to be 0.08 h; in data set [1] (PO, 10 mg/kg, HCl Salt), 1.0 h; in data set [1] (setting [6]), 0.08 h; in data set [1] (setting [7]), 1 h. For the same compound, the F in data set [1] (PO, 10 mg/kg, HCl Salt) is 29.6%; in data set [1] (PO, 10 mg/kg, Mesylate Salt), 27.8%. For the same compound, the clearance in data set [1] (setting [3]) was 66 mL/min/kg; in data set [1] (plasma, iv, 5 mg/kg, HCl Salt) it was 55 mL/min/kg; in data set [1] (setting [4]), 66.1 mL/min/kg. Further, the AUC in data set [1] (plasma, iv, 5 mg/kg, HCl Salt) was 1480 ng·h/mL; in data set [1] (setting [4]), 1240 ng·h/mL; in data set [1] (plasma, po, 10 mg/kg, HCl Salt), 849 ng·h/mL; in data set [1] (setting [5]), 657 ng·h/mL. Besides, the AUC(0-inf) in data set [1] (plasma, iv, 5 mg/kg, HCl Salt) is 1520 ng·h/mL; in data set [1] (setting [4]), 1260 ng·h/mL; in data set [1] (plasma, po, 10 mg/kg, HCl Salt) it was 896 ng·h/mL; in data set [1] (setting [5]), 700 ng·h/mL. Moreover, the AUC(0-t) in data set [1] (plasma, iv, 5 mg/kg, HCl Salt) was 1480 ng·h/mL; in data set [1] (setting [4]), 1240 ng·h/mL; in data set [1] (plasma, po, 10 mg/kg, HCl Salt), 849 ng·h/mL; in data set [1] (setting [5]), 657 ng·h/mL. For the same compound, the highest concentration (Cmax) in data set [1] (plasma, iv, 5 mg/kg, HCl Salt) stood at 1710 ng/mL; in data set [1] (setting [4]) it was 1620 ng/mL; in data set [1] (plasma, po, 10 mg/kg, HCl Salt), 322 ng/mL; in data set [1] (setting [5]) it was 212 ng/mL. Also, the Vd was determined as 10.1 L/kg in data set [1] (plasma, iv, 5 mg/kg, HCl Salt) and 4.6 L/kg in data set [1] (setting [4]). The half-life in data set [1] (plasma, iv, 5 mg/kg, HCl Salt) was 7.6 h; in data set [1] (setting [4]), 1.6 h; in data set [1] (plasma, po, 10 mg/kg, HCl Salt) it was 1.8 h; in data set [1] (setting [5]), 1.9 h. Further, the bioavailability in data set [1] (setting [8]) and in data set [1] (setting [9]) was 28% throughout.
As for `CN1CCC2(CCN(Cc3cnc4oc5c(N6CCOCC6)nc(-c6cccc7[nH]ccc67)nc5c4c3)C2)C1` (centres unmarked) [Example E, 4-(1H-Indol-4-yl)-12-({7-methyl-2,7-diazaspiro[4.4]nonan-2-yl}methyl)-6-(morpholin-4-yl)-8-oxa-3,5,10-triazatricyclo[7.4.0.0^2,7]trideca-1(13),2(7),3,5,9,11-hexaene], in the data set with PI3K isoforms, the “Fold IC50 p110β/p110α” value is recorded as “** (** = ≥50x)”, the “Fold IC50 p110β/p110γ” value is given as “** (** = ≥50x)”, the “Fold IC50 p110δ/p110α” value is “** (** = ≥50x)” and the “Fold IC50 p110δ/p110γ” value was “** (** = ≥50x)”.
Compound `c1cc(-c2nc(N3CCOCC3)c3oc4ncc(CN5CCC56COC6)cc4c3n2)c2cc[nH]c2c1` [Example G, 4-(1H-indol-4-yl)-6-(morpholin-4-yl)-12-{6-oxa-1-azaspiro[3.3]heptan-1-ylmethyl}-8-oxa-3,5,10-triazatricyclo[7.4.0.0^2,7]trideca-1(13),2(7),3,5,9,11-hexaene] had a 50% inhibitory concentration (IC50) against PI3K p110α of at most 500 nM. On PI3K p110β, the IC50 is at most 500 nM. Further, the IC50 on PI3K p110δ was at most 500 nM. In addition, the IC50 at PI3K p110γ fell in the range of 500 to 1000 nM. In data set [2] (PO, 10 mg/kg, Mesylate Salt), the F was 30%, the AUC(0-inf) was 2140 ng·h/mL, the AUC(0-t) came out at 1890 ng·h/mL and the Cmax is 833 ng/mL. In data set [2] (PO, 10 mg/kg, Mesylate Salt), the Tmax was 0.25 h. In data set [2] (3 mg/kg, 3 mg/kg I.V., summary), this compound registered a clearance of 26 mL/min/kg. For the same compound, the clearance in data set [2] (3 mg/kg, Mesylate Salt) was 25.8 mL/min/kg. In data set [2] (IV, 3 mg/kg, Mesylate Salt), the AUC(0-inf) came to 1940 ng·h/mL, the AUC(0-t) was determined as 1920 ng·h/mL, the Cmax turned out to be 2210 ng/mL and the half-life is 0.59 h. In addition, the Vd in data set [2] (IV, 3 mg/kg, Mesylate Salt) is 1.25 L/kg. For the same compound, the bioavailability in data set [2] (setting [10]) was determined as 30%. Besides, the bioavailability in data set [2] (setting [11]) was found to be 30%.
Take `c1cc(-c2nc(N3CCOCC3)c3oc4ncc(CN5CCC6(CC5)COC6)cc4c3n2)c2cc[nH]c2c1` [Example B, 4-(1H-Indol-4-yl)-6-(morpholin-4-yl)-12-{2-oxa-7-azaspiro[3.5]nonan-7-ylmethyl}-8-oxa-3,5,10-triazatricyclo[7.4.0.027]trideca-1(13),2(7),3,5,9,11-hexaene]: in the data set with PI3K isoforms, the “Fold IC50 p110β/p110α” value is on record as “** (** = ≥50x)”, the “Fold IC50 p110β/p110γ” value is “** (** = ≥50x)”, the “Fold IC50 p110δ/p110α” value is recorded as “** (** = ≥50x)” and the “Fold IC50 p110δ/p110γ” value is “** (** = ≥50x)”. Also, in data set [2] (PO, 10 mg/kg, Mesylate Salt), the F is given as 74%, the area under the curve AUC(0-inf) was 4100 ng·h/mL, the AUC(0-t) stood at 3730 ng·h/mL and the Cmax came out at 780 ng/mL. For the same compound, in data set [2] (PO, 10 mg/kg, Mesylate Salt), the Tmax was 1 h. Besides, the clearance in data set [2] (3 mg/kg, 3 mg/kg I.V., summary) was found to be 33 mL/min/kg. In addition, the clearance in data set [2] (3 mg/kg, Mesylate Salt) was 33.1 mL/min/kg. Further, in data set [2] (IV, 3 mg/kg, Mesylate Salt), the AUC(0-inf) worked out at 1510 ng·h/mL, the AUC(0-t) came to 1510 ng·h/mL, the Cmax stood at 621 ng/mL and the half-life is 1.23 h. In addition, in data set [2] (IV, 3 mg/kg, Mesylate Salt), the Vd is 5.51 L/kg. Also, in data set [2] (setting [10]), the bioavailability was found to be 74%. Besides, in data set [2] (setting [11]), the bioavailability was 74%.
